Data taken from patent publication EP0319316A2, “Griseolic acid monoesters, their preparation and use” (SANKYO COMPANY LIMITED, priority 1987, dated 1989).
Structures can show the parent of a compound that is named as a salt. Where two headings read alike, the source gives them in different places.

Key:
normal rabbits = assay: Intraocular pressure reduction in normal rabbits (Experiment 1); type: in vivo, male New Zealand white rabbits
Procedure: In the following Experiments 1 to 6, the test animals used were male New Zealand white rabbits, each weighing about 2.5 kg, raised in a room where the room temperature, relative humidity and lighting time were controlled to be 23° C, 60% and from 07:00 to 19:00, respectively. The animals were chosen from those where no abnormalities could be detected in their eyes by observation with the naked eye. They were given water freely but feed was restricted. The reduction in intraocular pressure (IOP) caused by the compounds of the present invention was investigated using groups of three male New Zealand white rabbits for each test. The compounds of the present invention were employed as solutions dissolved in a 50 mM phosphate buffer (pH 7.0) containing 0.4% w/v of sodium chloride which were adjusted to concentrations of about 1% w/v of the compound under test. Both eyes of each rabbit were anesthetized with eye drops containing an ophthalmic anesthetic (0.4% Benoxil, available from Santen Pharmaceutical Co., Ltd.), and then the IOP in each eye was measured by means of a PTG (Pneumatonograph: Alcon). The test substance was then instilled into either the left eye or the right eye (the eye to be tested) in an amount of 50 µℓ (in the case of 0.5% timolol, a known compound used for comparison, the amount was 30 µℓ). Sixty minutes after this instillation, the same amount of the same test compound was instilled into the same eye of each test animal. On the other hand, no instillation was effected into the other eye of each animal, which was used as a control eye. The IOP values of both eyes were measured 30,60,90,120,150 and 180 minutes, after the initial instillation of the test substance. The IOP reduction at each time of measurement caused by each test substance was calculated from the following equation: Intraocular pressure reduction (Ap, mmHg) = (Ic - It) - (Ic° - It°), • in which: • Ic the IOP of the control eye; • It is the IOP of the test eye; • Ic° the IOP of the control eye immediately before the initial instillation; and • It° is the IOP of the test eye immediately before the initial instillation. The average value of the IOP reduction at each time of measurement was calculated to obtain the intraocular reduction (Ap, mmHg) of the test substance. The results are reported as a ratio of the Δp of the test substance to that of the known substance, 0.5% timolol, which is, therefore, taken as 1.

Balb/3T3 cells [1] = settings: 10 min, 500 µM
Procedure: (§1) Balb/3T3 cells were incubated in Dulbecco's modified Eagle medium (glucose-rich) containing 100/o v/v bovine fetal serum. […] The sample was then dissolved in a buffer solution prepared by the further addition of 4 mM of calcium chloride to the buffer solution mentioned above. If the sample was difficult to dissolve in water, it was dissolved first in dimethyl sulphoxide (DMSO) and then the resulting solution was diluted with the buffer (the final concentration of DMSO was determined to be 0.1%). The cell suspension was preincubated at 30° C for 5 minutes, and 100 µℓ of this suspension were added to 100 µℓ of the sample solution to initiate enzymatic reaction. After incubation at 30° C for 10 minutes, 20 µℓ of 1 N aqueous hydrochloric acid was added to stop the reaction. The reaction mixture was then centrifuged at 3000 rpm for 3 minutes to obtain 100 µℓ of the supernatant. Cyclic 3',5'-adenosine monophosphate (cAMP) contained in the supernatant was quantitatively analyzed by radioimmunoassay using a Yamasa cAMP radioimmunoassay kit YSI-7701. The CAMP accumulating effect is reported as the ratio between the value measured using a test compound and that measured in the control.

IOP = IOP lowering effect, area between IOP-time curves (Experiment 6); type: in vivo, male New Zealand white rabbits; settings: 25 µℓ three times every 2 minutes, ratio of areas between IOP lines
Procedure: In the following Experiments 1 to 6, the test animals used were male New Zealand white rabbits, each weighing about 2.5 kg, raised in a room where the room temperature, relative humidity and lighting time were controlled to be 23° C, 60% and from 07:00 to 19:00, respectively. The animals were chosen from those where no abnormalities could be detected in their eyes by observation with the naked eye. They were given water freely but feed was restricted.
The compound under test was dissolved in 100 mM of a sodium phosphate buffer solution (pH 7.2) containing a small amount of a 0.1 N aqueous solution of sodium hydroxide. In the case of timolol maleate, a 0.5% w/v eye lotion (Timoptol 0.5%, Santen Pharm. Co.) was used as such.
The cornea of the rabbit was anesthetized by the topical application of one or two drops of 0.4% oxybuprocaine hydrochloride. The IOP was measured two or three times for each eye and the mean value was calculated and is reported as the IOP value. After the IOP of the rabbit eye had been measured, 25 µℓ of the sample solution was applied to center of the cornea of one eye three times every 2 minutes. The other eye was treated with the vehicle alone in a similar way. The IOP of both eyes was then measured.
IOP values obtained from both eyes were plotted against times after application and the area enclosed by the two IOP lines (with and without the active compound) was calculated. The IOP lowering effect of each sample was expressed as a ratio of the area described above to that of 0.5^0/o timolol.

Balb/3T3 cells [2] = assay: cAMP accumulation in Balb/3T3 cells, radioimmunoassay (Experiment 5)
Procedure: as §1

[3] = tested on: water load-induced elevation of intraocular pressure; assay: Effect on water load-induced elevation of intraocular pressure, water load test (Experiment 2); type: in vivo, male New Zealand white rabbits; settings: 0.5% timolol maleate; water load test
Procedure: In the following Experiments 1 to 6, the test animals used were male New Zealand white rabbits, each weighing about 2.5 kg, raised in a room where the room temperature, relative humidity and lighting time were controlled to be 23° C, 60% and from 07:00 to 19:00, respectively. The animals were chosen from those where no abnormalities could be detected in their eyes by observation with the naked eye. They were given water freely but feed was restricted. The compound under test was dissolved in 100 mM of a sodium phosphate buffer solution (pH 7.2) containing a small amount of a 0.1 N aqueous solution of sodium hydroxide. In the case of timolol maleate, a 0.5% w/v eye lotion (Timoptol 0.5%, Santen Pharm. Co.) was used as such. Each rabbit was anesthetized with urethane (1.0 g/kg, i.v.), and the IOP values of both eyes were measured. Immediately thereafter, 50 µℓ of the sample solution was applied to one eye (test eye). To the other eye (control eye), 50 µℓ of the vehicle alone was applied. Ninety minutes after this application, the values of IOP were measured and then the water load test was performed as follows. Sixty ml/kg of tap water was given compulsorily per os to the anesthetized rabbit, and then the values of IOP for both eyes were measured with the passage of time. In this Experiment, the test compound was the compound of Example 19(b), i.e. 9'-(4-acetoxybenzyl) griseolate.

[4] = tested on: Normal intraocular pressure; assay: Normal intraocular pressure lowering effect (Experiment 3); type: in vivo, male New Zealand white rabbits; settings: 0.5% timolol maleate applied to the eye
Procedure: In the following Experiments 1 to 6, the test animals used were male New Zealand white rabbits, each weighing about 2.5 kg, raised in a room where the room temperature, relative humidity and lighting time were controlled to be 23° C, 60% and from 07:00 to 19:00, respectively. The animals were chosen from those where no abnormalities could be detected in their eyes by observation with the naked eye. They were given water freely but feed was restricted. The compound under test was dissolved in 100 mM of a sodium phosphate buffer solution (pH 7.2) containing a small amount of a 0.1 N aqueous solution of sodium hydroxide. In the case of timolol maleate, a 0.5% w/v eye lotion (Timoptol 0.5%, Santen Pharm. Co.) was used as such. The corneal surface was anesthetized by the application of oxybuprocain hydrochloride (Benoxil 0.4% solution, Santen Pharm. Co.), and the IOP was measured by means of an Alcon Applanation Pneumatograph (Japan Alcon) in rabbits. The measurements were carried out 2 or 3 times for each eye, and the mean value was calculated and is regarded as the value of IOP. After determination of the IOP, 25 µℓ of a sample solution was applied to one eye (test eye) three times every two minutes, and the same volume of the vehicle alone was applied to the other eye (control eye). The values of IOP of both eyes were measured with the passage of time. In this Experiment, the test compound was the compound of Example 19(b).

[5] = drug concentration 1.0 %, 50 µℓ instilled at 0 and 60 min, average over 30-180 min, ratio to 0.5% timolol taken as 1

For “9'-[1-(Isopropoxycarbonyloxy)ethyl] griseolate [Example 2]”, the “Intraocular pressure reduction relative to 0.5% timolol” value (normal rabbits; [5]) was 1.24.
In the case of COc1cc(COC(=O)C(O)C2=CC3(C(=O)O)OC(n4cnc5c(N)ncnc54)C(O)C3O2)ccc1OC(C)=O (centres unmarked) [Example 35, 8'-(4-Acetoxy-3-methoxybenzyl) griseolate], the cAMP accumulating effect (Balb/3T3 cells [1]) is reported as 18.
“9'-(3,4-Diacetoxybenzyl) griseolate [Example 22(b)]” showed a cAMP accumulating effect (Balb/3T3 cells [1]) of 8.3.
With CCCC(=O)OC(C)OC(=O)C12C=C(C(O)C(=O)O)OC1C(O)C(n1cnc3c(N)ncnc31)O2 (centres unmarked) [Example 7, 9'-(1-Butyryloxyethyl) griseolate] the “Intraocular pressure reduction relative to 0.5% timolol” value (normal rabbits; [5]) was 0.79.
For “9'-(4-Acetoxy-3-methoxybenzyl) griseolate [Example 26(b)]”, the “IOP Lowering Effect (Ratio to 0.5% timolol)” value (IOP; Concentration 0.5 %) was 3.29.
With CC(C)C(=O)Oc1ccc(COC(=O)C2=CC3(C(O)C(=O)O)OC(n4cnc5c(N)ncnc54)C(O)C3O2)cc1 (centres unmarked) [Example 23(b), 9'-(4-lsobutyryloxybenzyl) griseolate] the “IOP Lowering Effect (Ratio to 0.5% timolol)” value (IOP; Concentration 0.03 %) was 1.62.
For “8'-Pivaloyloxyrnethyl griseolate [Example 10]”, the “Intraocular pressure reduction relative to 0.5% timolol” value (normal rabbits; [5]) was 1.08.
For Cc1oc(=O)oc1COC(=O)C12C=C(C(O)C(=O)O)OC1C(O)C(n1cnc3c(N)ncnc31)O2 (centres unmarked) [Example 3, 9'-(5-Methyl-2-oxo-1,3-dioxolen-4-yl)methyl griseolate], the “Intraocular pressure reduction relative to 0.5% timolol” value (normal rabbits; [5]) was 0.90.
Work on CC(=O)Oc1ccc(COC(=O)C(O)C2=CC3(C(=O)O)OC(n4cnc5c(N)ncnc54)C(O)C3O2)cc1 (centres unmarked) [Example 34, 8'-(4-Acetoxybenzyl) griseolate] yielded a cAMP accumulating effect (Balb/3T3 cells [1]) of 16.
“9'-Pivaloyloxymethyl griseolate [Example 1]” was tested, and the “Intraocular pressure reduction relative to 0.5% timolol” value (normal rabbits; [5]) was 2.38.
For CC(C)(C)NC[C@H](O)COc1nsnc1N1CCOCC1 [timolol, reference compound], the “Intraocular pressure reduction relative to 0.5% timolol” value (normal rabbits; drug concentration 0.5 %, 30 µℓ instilled at 0 and 60 min, reference, taken as 1) was 1.0.
CC(=O)Oc1ccccc1C=CCOC(=O)C12C=C(C(O)C(=O)O)OC1C(O)C(n1cnc3c(N)ncnc31)O2 (centres unmarked) [Example 31(b), 9'-(2-Acetoxycinnamyl) griseolate] was tested, and the “IOP Lowering Effect (Ratio to 0.5% timolol)” value (IOP; Concentration 0.5 %) was 1.88.
In the case of “9'-(4-Acetoxy-3-methoxybenzyl) 7'-deoxygriseolate [Example 37]”, the cAMP accumulating effect (Balb/3T3 cells [2]; Concentration 500 µM, ratio of value with test compound to control, 30° C, 10 minutes) is reported as 16.
CC(C)(C)C(=O)Oc1ccc(COC(=O)C23C=C(C(O)C(=O)O)OC2C(O)C(n2cnc4c(N)ncnc42)O3)cc1 (centres unmarked) [Example 21(b), 9'-(4-Pivaloyloxybenzyl) griseolate] gave a cAMP accumulating effect (Balb/3T3 cells [1]) of 8.5.
In the case of CC(=O)Oc1ccc(COC(=O)C23C=C(CC(=O)O)OC2C(O)C(n2cnc4c(N)ncnc42)O3)cc1 (centres unmarked) [Example 36, 9'-(4-Acetoxybenzyl) 7'-deoxygriseolate], the cAMP accumulating effect (Balb/3T3 cells [1]) is reported as 16.
In the case of Nc1ncnc2c1ncn2[C@@H]1OC2=C[C@@](C(=O)O)(C(O)C(=O)O)O[C@H]2[C@H]1O (some centres unmarked) [Griseolic acid], the “Intraocular pressure reduction relative to 0.5% timolol” value (normal rabbits; [5]) is reported as -0.12 and the fold induction at 500 µM (Balb/3T3 cells [2]; Mus musculus, BALB/3T3, 10 min, read-out: cAMP accumulating effect) is reported as 3.5.
CC(C)(C)NC[C@H](O)COc1nsnc1N1CCOCC1 [timolol maleate, reference compound] was tested, and the “difference of IOP between the control eye and the test eye” value [3] was “no significant difference” and the “significant lowering of IOP” value [4] was “only observed 2 hours after application”.
With “9'-(1-Pivaloyloxyethyl) griseolate [Example 5]” the “Intraocular pressure reduction relative to 0.5% timolol” value (normal rabbits; [5]) was 0.92.
